Series [1] can be described thus: Cytotoxicity assay, MTT method. The following applies: human, HepG2, MTT, 72 h incubation, n = 3. The format is cell-based, Human. The protocol: (§1) The cytotoxicity of the compounds to HepG2 was determined using the MTT method. First, the cells were transferred from the culture dish to a centrifuge tube, and centrifuged for 5 min (at 1000 r/min). After discarding the supernatant, the tumor cells were cultured in a complete medium containing 15% fetal bovine serum at 37 C, 5% CO2, and saturated humidity. When the cells grew logarithmically, they were spread onto plates, and the cell density was adjusted to 8.0 × 10^4 cells/mL before the cell sap was added into a 96-well plate (200 µL per well). The cells grew adherent for 24 h. After 24 h, 2 µL of two standards, two extracts of medicinal herbs were added to each plate well and incubated for 72 h. Adriamycin was used as the positive control, and the blank control contained 2 µL DMSO. After incubation, 20 μL of 5 mg/mL MTT solution was added, and the plates were incubated for 4 h. The supernatant liquid was removed, and the cells were disrupted with 200 µL of DMSO for 10 min. After the blue crystalline substance was fully dissolved, the absorbance value was measured on a microplate reader with the detection wavelength of 562 nm and the reference wavelength of 630 nm. The IC50 value of each compound was calculated.
(In general: Tetrazolium assays rely on reduction of a dye to a coloured formazan, in cell work by metabolically active cells.)

Series [2] deals with HepG2 cell line. Description: Cytotoxicity assay, MTT method. The format is cell-based, Human. The method, then: as §1
The test system of series [3] is DNA of HepG2 cells. Kind of series: Comet assay, DNA damage. The format is cell-based, Human. The following applies: HepG2, 48 h; AAI 50 μM, AAII 131.5 μM, AMH 10 mg/mL, ADS 93 mg/mL, ADM 3.4 μM; Kruskal–Wallis test.
Series [4] relates to DNA of HepG2 cells. Description: Comet assay, DNA damage. The format is cell-based, Human. The following applies: for damage to the DNA of HepG2 cells / tail length compared with blank control group: AAI 50 μM, AAII 131.5 μM; for tail length compared with blank control group: AMH 10 mg/mL, ADS 93 mg/mL, ADM 3.4 μM, Kruskal–Wallis test. The method, then: Cells in the logarithmic growth phase were inoculated in 6-well plates, and the cell density was adjusted to 2.5 × 10^5 cells /mL, 2 mL per well. After 24 h, the experimental group was combined with AAⅠ (50 μM), AAII (131.5 μM), extracts of the AMH (10 mg/mL) and ADS (93 mg/mL), the positive control group was combined with ADM (3.4 μM), and the blank control group were added with the same volume of cell culture solution. After 48 h of culture, the cells were collected. DNA damage was detected according to the operating instructions of comet assay kit. The experiment was repeated 3 times, and 50 cells were selected at each dose in each experiment and analyzed by Comet Assay software (CASP, http://casplab.com/, accessed on 5 October 2022). The mean values of tail DNA percentage, tail length, and tail moment of three experiments were used to express DNA damage. Results one-way ANOVA was used to test the data between groups, and the difference was statistically significant when p < 0.01. Data and statistical results are generated by GraphPad Prism 7 software.

Series [5] has as its system NCI-H187 cell line. More on the design: method as in PMID 25865074, PMID 29098873. The conditions noted are these: cited from earlier work.
Series [6] relates to A549. More on the design: method as in PMID 25865074, PMID 29098873. The following applies: cited from earlier work.
Series [7] has as its system MCF7. More on the design: method as in PMID 25865074, PMID 29098873. The following applies: cited from earlier work.
Where [8] appears, read: means ± SD, read-out: IC50 values of compounds, cytotoxic activity.
[9] abbreviates: HepG2, AAI 50 μM vs AAII 131.5 μM, 48 h.
Setting [10] is: HepG2, AAI 50 μM vs ADS extract 93 mg/mL, 48 h.

Results on eight compounds are retold here after article PMC9783648, “Comparative Analysis of Aristolochic Acids in Aristolochia Medicinal Herbs and Evaluation of Their Toxicities” (Toxins, 2022).

Read-outs that look alike come from different tables or passages of the source.

`O=C(O)c1cc2c(c3c1c([N+](=O)[O-])cc1ccc(O)cc13)OCO2` [AAC, aristolochic acid ΙΙΙ a]: the IC50 (usually the midpoint of a concentration-inhibition curve) in series [1] (setting [8]) stood at 293.5 ± 0.3 µM.

In the case of `COc1cc(O)cc2c1cc([N+](=O)[O-])c1c(C(=O)O)cc3c(c12)OCO3` [AAD, Aristolochic acid IVa], the “cytotoxicity against HepG2 cell line” value in series [2] is listed as “no cytotoxicity”. Moreover, the IC50 in series [1] (read-out: IC50 values of compounds, cytotoxic activity (symbol)) was > 1000 µM.

As to `COc1cccc2c1cc([N+](=O)[O-])c1c(C(=O)O)cc3c(c12)OCO3` [AAI, Aristolochic acid I], the “cytotoxicity against HepG2 cell line” value in series [2] is reported as “moderate cytotoxicity”. Further, the IC50 at 72 h in series [1] (setting [8]) was found to be 50.2 ± 0.2 µM. The “tail DNA content compared with blank control group” value in series [3] is on record as “significant differences”. In addition, in series [4] (HepG2, 48 h), the “damage to the DNA of HepG2 cells” value was “obviously caused damage to the DNA” and the “tail length compared with blank control group” value is listed as “significantly higher”. In addition, in series [4] (setting [9]), the “tail DNA content, increase relative to AAII” value was found to be 16 times; the “tail length, increase relative to AAII” value is listed as 12.8 times; the “tail moment, increase relative to AAII group” value is 110 times. In series [4] (setting [10]), the “tail DNA content, increase relative to ADS” value came out at 4.7 times; the “tail length, increase relative to ADS” value is recorded as 6.8 times; the “tail moment, increase relative to ADS group” value is recorded as “approximately 70 times”. The “damage to cellular DNA, TDNA” value in series [4] (HepG2, at 50 μM, 48 h) is 40–95%.

As for `O=C(O)c1cc2c(c3c1c([N+](=O)[O-])cc1ccccc13)OCO2` [AAII], the IC50 in series [1] (setting [8]) worked out at 131.4 ± 0.1 µM. Further, the “tail DNA content compared with blank control group” value in series [3] is listed as “no significance”. Moreover, in series [4] (HepG2, 48 h), the “damage to cellular DNA, TDNA” value is on record as 5–20% and the “damage to the DNA of HepG2 cells” value is given as “no obvious damage”.

On to `COc1cc2c3c(cc4ccccc4c3c1OC)NC2=O` [AL-BII], for which the “cytotoxicity against HepG2 cell line” value in series [2] is listed as “most potent cytotoxicity”. Besides, the IC50 in series [1] (setting [8]) stood at 0.2 ± 0.1 µM. The “cytotoxicity against NCI-H187 cell line” value in series [5] is “selective cytotoxicity”. Besides, the “cytotoxicity against A549” value in series [6] is “no cytotoxicity”. Moreover, the “cytotoxicity against MCF7” value in series [7] is “no cytotoxicity”.

Take `COc1cc2c3c(cc4ccccc4c3c1O)NC2=O` [AL-FI]: the IC50 in series [1] (setting [8]) stood at 417.2 ± 0.2 µM.

For the compound `COc1cccc2c1cc1c3c(cc4c(c32)OCO4)C(=O)N1` [AL-I, aristolactam Ι], the IC50 in series [1] (setting [8]) turned out to be 135.7 ± 0.3 µM.

For the compound `COc1cccc2c1C(=O)c1c(O)c3c(c(O)c1C2=O)C[C@@](O)(C(=O)CO)C[C@@H]3O[C@H]1C[C@H](N)[C@H](O)[C@H](C)O1` [Extract of ADM, Adriamycin], in series [1] (setting [8]), the half-maximal inhibitory concentration (IC50) was 3.1 ± 0.1 µM. Moreover, the “tail DNA content compared with blank control group” value in series [3] is listed as “significant differences”. For the same compound, in series [4] (HepG2, 48 h), the “tail length compared with blank control group” value was “significantly higher”.
